One series deals with T1, P-gp (Homo sapiens, UniProt P08183).
T1 construct: endogenous in cells; host or cells: circulating NK cells and leukemic blasts of AML patients
The series can be described thus: cellular P-gp function, DiOC2 accumulation assay with flow cytometry, in AML patients. It is filed as in vivo. The settings on record: circulating NK cells and leukemic blasts; 700 mg/day continuous iv infusion. How it is done: Cytarabine was also administered (100 mg/m^2/day) starting after the first dose of daunorubicin as a continuous intravenous infusion on days 1-7. Blood samples were taken at intervals for pharmacokinetic and pharmacodynamic studies. Pharmacokinetic drug determinations were conducted by HPLC. Pharmacodynamic assessments of cellular P-gp function were conducted using an accumulation assay with DiOC2 and flow cytometry. P-gp function was assessed on circulating natural killer (NK) cells and leukemic blasts. […] Means of 3 patients for each time point are shown.

For the next series, the target named is P450 isoenzyme 3A4 (Homo sapiens, UniProt P08684). The settings on record: cited from earlier work.
Chain of P450 isoenzyme 3A4 (P08684 whole entry): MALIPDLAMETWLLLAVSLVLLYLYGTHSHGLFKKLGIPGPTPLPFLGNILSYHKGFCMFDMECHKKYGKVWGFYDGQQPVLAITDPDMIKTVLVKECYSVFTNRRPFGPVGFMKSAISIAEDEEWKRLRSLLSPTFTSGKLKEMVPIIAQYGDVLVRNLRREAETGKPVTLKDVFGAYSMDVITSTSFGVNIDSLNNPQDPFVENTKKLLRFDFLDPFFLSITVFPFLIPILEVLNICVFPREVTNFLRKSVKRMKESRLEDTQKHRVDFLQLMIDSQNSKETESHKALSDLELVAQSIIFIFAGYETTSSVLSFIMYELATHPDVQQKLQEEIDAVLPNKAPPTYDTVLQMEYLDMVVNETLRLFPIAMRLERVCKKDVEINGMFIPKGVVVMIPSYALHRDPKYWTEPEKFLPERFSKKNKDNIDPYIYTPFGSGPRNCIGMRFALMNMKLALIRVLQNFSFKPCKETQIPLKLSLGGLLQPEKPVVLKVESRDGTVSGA

This is an account of results in patent publication US20070010478A1 (priority 2005, published 2007).

Bounds are passed on as bounds.

T1 sequence (P08183 whole entry): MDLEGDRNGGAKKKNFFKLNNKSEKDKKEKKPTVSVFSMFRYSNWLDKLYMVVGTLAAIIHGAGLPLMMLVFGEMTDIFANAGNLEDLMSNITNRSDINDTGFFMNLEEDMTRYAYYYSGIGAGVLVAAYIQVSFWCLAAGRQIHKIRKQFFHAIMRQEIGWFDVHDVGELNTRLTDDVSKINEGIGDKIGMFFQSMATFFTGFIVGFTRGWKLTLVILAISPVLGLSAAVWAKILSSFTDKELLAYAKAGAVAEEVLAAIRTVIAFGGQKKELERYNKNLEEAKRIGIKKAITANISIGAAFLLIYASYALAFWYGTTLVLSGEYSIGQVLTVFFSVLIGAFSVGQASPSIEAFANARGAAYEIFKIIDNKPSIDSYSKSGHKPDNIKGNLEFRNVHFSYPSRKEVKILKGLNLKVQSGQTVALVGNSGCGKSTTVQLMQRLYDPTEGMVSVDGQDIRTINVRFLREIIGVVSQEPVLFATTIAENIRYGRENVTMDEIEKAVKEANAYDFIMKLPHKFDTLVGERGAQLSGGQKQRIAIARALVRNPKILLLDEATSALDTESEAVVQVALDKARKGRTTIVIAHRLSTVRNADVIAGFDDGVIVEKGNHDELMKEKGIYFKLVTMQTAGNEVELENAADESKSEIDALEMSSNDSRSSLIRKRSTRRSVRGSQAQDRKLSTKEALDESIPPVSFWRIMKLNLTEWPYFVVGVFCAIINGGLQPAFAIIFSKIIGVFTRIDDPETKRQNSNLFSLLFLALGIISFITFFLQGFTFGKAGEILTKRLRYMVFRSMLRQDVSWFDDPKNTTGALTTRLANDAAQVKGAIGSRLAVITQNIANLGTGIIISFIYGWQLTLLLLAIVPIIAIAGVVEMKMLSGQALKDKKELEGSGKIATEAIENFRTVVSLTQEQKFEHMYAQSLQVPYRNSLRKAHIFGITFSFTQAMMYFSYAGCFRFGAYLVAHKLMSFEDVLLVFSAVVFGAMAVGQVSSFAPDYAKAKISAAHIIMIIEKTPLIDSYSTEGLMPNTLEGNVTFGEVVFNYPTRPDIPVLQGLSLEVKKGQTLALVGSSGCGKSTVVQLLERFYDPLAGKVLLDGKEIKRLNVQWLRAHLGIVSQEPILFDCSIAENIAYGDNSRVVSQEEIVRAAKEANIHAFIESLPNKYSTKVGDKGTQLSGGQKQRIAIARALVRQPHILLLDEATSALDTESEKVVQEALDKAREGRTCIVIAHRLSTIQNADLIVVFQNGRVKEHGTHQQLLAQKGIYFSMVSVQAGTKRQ

Turning to `O[C@@H](COc1cccc2ncccc12)CN1CCN([C@@H]2c3ccccc3[C@@H]3[C@H](c4ccccc42)C3(F)F)CC1` [zosuquidar], on P-gp, the “time to potent inhibition of P-gp function after start of zosuquidar infusion” value is ≤ 2 h.
On to `COc1cc(C(=O)C(=O)N2CCCC[C@H]2C(=O)OC(CCCc2cccnc2)CCCc2cccnc2)cc(OC)c1OC` [biricodar], for which the “substrate for the P450 isoenzyme 3A4” value at P450 isoenzyme 3A4 is “substrates for the P450 isoenzyme 3A4”.
In the case of `C/C=C/C[C@@H](C)C(=O)[C@H]1C(=O)N[C@@H](C(C)C)C(=O)N(C)CC(=O)N(C)[C@@H](CC(C)C)C(=O)N[C@@H](C(C)C)C(=O)N(C)[C@@H](CC(C)C)C(=O)N[C@@H](C)C(=O)N[C@H](C)C(=O)N(C)[C@@H](CC(C)C)C(=O)N(C)[C@@H](CC(C)C)C(=O)N(C)[C@@H](C(C)C)C(=O)N1C` [valspodar], the “substrate for the P450 isoenzyme 3A4” value at P450 isoenzyme 3A4 was “substrates for the P450 isoenzyme 3A4”.
